According to patent publication US20250326744A1, “PIPERAZINE DERIVATIVE OR SALT THEREOF, AND PHARMACEUTICAL COMPOSITION” (priority 2022, published 2025):
Counter-ions that a name gives are not always drawn.

Tests used:
mexB (PA) strain = assay: Combinational effect with antibacterial agent against Pseudomonas aeruginosa (Test Examples 2 and 4): mexB (PA) strain with LVFX, TC or AZT at 1/4 MIC, EC99; format: cell-based; settings: mexB (PA) strain, Test Example 4; for EC99, combinational effect with AZT, mexB (PA): combined with AZT at 1/4 MIC; for EC99, combinational effect with LVFX, mexB (PA): combined with LVFX at 1/4 MIC; for EC99, combinational effect with TC, mexB (PA): combined with TC at 1/4 MIC
In short: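 EC99 denotes the minimum test-compound concentration (range 0–800 μM) that suppresses ≥99% of growth, measured by OD595, when combined with ¼ MIC levofloxacin (LVFX), tetracycline or aztreonam. The efflux-pump mutant mexB (PA), expressing mainly MexAB-OprM, was inoculated at 10^4–5 CFU/well in CAMHB for 16–20 h.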

S-3769 strain = assay: Combinational effect with antibacterial agent against Pseudomonas aeruginosa (Test Examples 2 and 4): S-3769 strain with AMK or GM at 1/4 MIC, EC99; format: cell-based; settings: S-3769 strain, Test Example 4; for EC99, combinational effect with AMK, S-3769 strain: combined with AMK at 1/4 MIC; for EC99, combinational effect with GM, S-3769 strain: combined with GM at 1/4 MIC
In short: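 EC99, the lowest test-compound concentration inhibiting growth by ≥99% (OD595), was measured with aminoglycoside AMK or GM held at ¼ MIC. Strain S-3769, a MexY-overexpressing clinical isolate, was cultured in CAMHB at 10^4 to 5 CFU/well for 16–20 h; compound range 0–800 μM.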

N[C@@H](C(=O)N1CCN(Cc2ccccc2B(O)O)CC1)C1CCN(CCc2cc(Cl)ccc2-c2ccccc2)CC1 [Example 521, Hydrobromide of (R)-(2-((4-(2-amino-2-(1-(2-(4-chloro-[1,1-biphenyl]-2-yl)ethyl)piperidin-4-yl)acetyl)piperazin-1-yl)methyl)phenyl)boronic acid]
EC99, combinational effect with AZT, mexB (PA) (mexB (PA) strain): C (100 μM<EC99) | EC99, combinational effect with LVFX, mexB (PA) (mexB (PA) strain): C (100 μM<EC99) | EC99, combinational effect with TC, mexB (PA) (mexB (PA) strain): C (100 μM<EC99) | EC99, combinational effect with AMK, S-3769 strain (S-3769 strain): B (25 μM<EC99≤100 μM) | EC99, combinational effect with GM, S-3769 strain (S-3769 strain): B (25 μM<EC99≤100 μM)

COc1cccc(SC)c1CN1CCN(C(=O)[C@H](N)C2CCN(CCc3cc(Cl)ccc3-c3ccccc3)CC2)CC1 [Example 522, Hydrobromide of (R)-2-amino-2-(1-(2-(4-chloro-[1,1-biphenyl]-2-yl)ethyl)piperidin-4-yl)-1-(4-(2-methoxy-6-(methylthio)benzyl)piperazin-1-yl)ethan-1-one]
EC99, combinational effect with AZT, mexB (PA) (mexB (PA) strain): B (25 μM<EC99≤100 μM) | EC99, combinational effect with LVFX, mexB (PA) (mexB (PA) strain): A (12.5 μM<EC99≤25 μM) | EC99, combinational effect with TC, mexB (PA) (mexB (PA) strain): B (25 μM<EC99≤100 μM) | EC99, combinational effect with AMK, S-3769 strain (S-3769 strain): A (12.5 μM<EC99≤25 μM) | EC99, combinational effect with GM, S-3769 strain (S-3769 strain): B (25 μM<EC99≤100 μM)

N[C@@H](C(=O)N1CCN(CC2CCCCC2)CC1)C1CCN(CCc2cc(Cl)ccc2-c2ccccc2)CC1 [Example 526, Hydrobromide of (R)-2-amino-2-(1-(2-(4-chloro-[1,1-biphenyl]-2-yl)ethyl)piperidin-4-yl)-1-(4-(cyclohexylmethyl)piperazin-1-yl)ethan-1-one]
EC99, combinational effect with AZT, mexB (PA) (mexB (PA) strain): B (25 μM<EC99≤100 μM) | EC99, combinational effect with LVFX, mexB (PA) (mexB (PA) strain): B (25 μM<EC99≤100 μM) | EC99, combinational effect with TC, mexB (PA) (mexB (PA) strain): A (12.5 μM<EC99≤25 μM) | EC99, combinational effect with AMK, S-3769 strain (S-3769 strain): A (12.5 μM<EC99≤25 μM) | EC99, combinational effect with GM, S-3769 strain (S-3769 strain): A (12.5 μM<EC99≤25 μM)

COc1cccc(NC(=O)C(C)(C)C)c1CN1CCN(C(=O)[C@H](N)C2CCN(CCc3cc(Cl)ccc3-c3ccccc3)CC2)CC1 [Example 527, Hydrobromide of (R)-N-(2-((4-(2-amino-2-(1-(2-(4-chloro-[1,1-biphenyl]-2-yl)ethyl)piperidin-4-yl)acetyl)piperazin-1-yl)methyl)-3-methoxyphenyl)pivalamide]
EC99, combinational effect with AZT, mexB (PA) (mexB (PA) strain): C (100 μM<EC99) | EC99, combinational effect with LVFX, mexB (PA) (mexB (PA) strain): C (100 μM<EC99) | EC99, combinational effect with TC, mexB (PA) (mexB (PA) strain): B (25 μM<EC99≤100 μM) | EC99, combinational effect with AMK, S-3769 strain (S-3769 strain): S (EC99≤12.5 μM) | EC99, combinational effect with GM, S-3769 strain (S-3769 strain): S (EC99≤12.5 μM)

N[C@@H](C(=O)N1CCN(Cc2c(F)cccc2-c2c[nH]cn2)CC1)C1CCN(CCc2cc(Cl)ccc2-c2ccccc2)CC1 [Example 528, Hydrobromide of (R)-2-amino-2-(1-(2-(4-chloro-[1,1-biphenyl]-2-yl)ethyl)piperidin-4-yl)-1-(4-(2-fluoro-6-(1H-imidazol-4-yl)benzyl)piperazin-1-yl)ethan-1-one]
EC99, combinational effect with AZT, mexB (PA) (mexB (PA) strain): B (25 μM<EC99≤100 μM) | EC99, combinational effect with LVFX, mexB (PA) (mexB (PA) strain): A (12.5 μM<EC99≤25 μM) | EC99, combinational effect with TC, mexB (PA) (mexB (PA) strain): A (12.5 μM<EC99≤25 μM) | EC99, combinational effect with AMK, S-3769 strain (S-3769 strain): A (12.5 μM<EC99≤25 μM) | EC99, combinational effect with GM, S-3769 strain (S-3769 strain): S (EC99≤12.5 μM)

N[C@@H](C(=O)N1CCN(Cc2ccccc2SC(F)(F)F)CC1)C1CCN(CCc2cc(Cl)ccc2-c2ccccc2)CC1 [Example 529, Hydrobromide of (R)-2-amino-2-(1-(2-(4-chloro-[1,1-biphenyl]-2-yl)ethyl)piperidin-4-yl)-1-(4-(2-((trifluoromethyl)thio)benzyl)piperazin-1-yl)ethan-1-one]
EC99, combinational effect with AZT, mexB (PA) (mexB (PA) strain): C (100 μM<EC99) | EC99, combinational effect with LVFX, mexB (PA) (mexB (PA) strain): A (12.5 μM<EC99≤25 μM) | EC99, combinational effect with TC, mexB (PA) (mexB (PA) strain): A (12.5 μM<EC99≤25 μM) | EC99, combinational effect with AMK, S-3769 strain (S-3769 strain): A (12.5 μM<EC99≤25 μM) | EC99, combinational effect with GM, S-3769 strain (S-3769 strain): B (25 μM<EC99≤100 μM)

CSc1ccc(F)cc1CN1CCN(C(=O)[C@H](N)C2CCN(CCc3cc(Cl)ccc3-c3ccccc3)CC2)CC1 [Example 530, Hydrobromide of (R)-2-amino-2-(1-(2-(4-chloro-[1,1-biphenyl]-2-yl)ethyl)piperidin-4-yl)-1-(4-(5-fluoro-2-(methylthio)benzyl)piperazin-1-yl)ethan-1-one]
EC99, combinational effect with AZT, mexB (PA) (mexB (PA) strain): B (25 μM<EC99≤100 μM) | EC99, combinational effect with LVFX, mexB (PA) (mexB (PA) strain): S (EC99≤12.5 μM) | EC99, combinational effect with TC, mexB (PA) (mexB (PA) strain): S (EC99≤12.5 μM) | EC99, combinational effect with AMK, S-3769 strain (S-3769 strain): S (EC99≤12.5 μM) | EC99, combinational effect with GM, S-3769 strain (S-3769 strain): A (12.5 μM<EC99≤25 μM)

CSc1sccc1CN1CCN(C(=O)[C@H](N)C2CCN(CCc3cc(Cl)ccc3-c3ccccc3)CC2)CC1 [Example 531, Hydrobromide of (R)-2-amino-2-(1-(2-(4-chloro-[1,1-biphenyl]-2-yl)ethyl)piperidin-4-yl)-1-(4-((2-(methylthio)thiophen-2-yl)methyl)piperazin-1-yl)ethan-1-one]
EC99, combinational effect with AZT, mexB (PA) (mexB (PA) strain): B (25 μM<EC99≤100 μM) | EC99, combinational effect with LVFX, mexB (PA) (mexB (PA) strain): S (EC99≤12.5 μM) | EC99, combinational effect with TC, mexB (PA) (mexB (PA) strain): A (12.5 μM<EC99≤25 μM) | EC99, combinational effect with AMK, S-3769 strain (S-3769 strain): A (12.5 μM<EC99≤25 μM) | EC99, combinational effect with GM, S-3769 strain (S-3769 strain): A (12.5 μM<EC99≤25 μM)

CSc1cccc(Cl)c1CN1CCN(C(=O)[C@H](N)C2CCN(CCc3cc(Cl)ccc3-c3ccccc3)CC2)CC1 [Example 532, Hydrobromide of (R)-2-amino-1-(4-(2-chloro-6-(methylthio)benzyl)piperazin-1-yl)-2-(1-(2-(4-chloro-[1,1-biphenyl]-2-yl)ethyl)piperidin-4-yl)ethan-1-one]
EC99, combinational effect with AZT, mexB (PA) (mexB (PA) strain): B (25 μM<EC99≤100 μM) | EC99, combinational effect with LVFX, mexB (PA) (mexB (PA) strain): B (25 μM<EC99≤100 μM) | EC99, combinational effect with TC, mexB (PA) (mexB (PA) strain): B (25 μM<EC99≤100 μM) | EC99, combinational effect with AMK, S-3769 strain (S-3769 strain): B (25 μM<EC99≤100 μM) | EC99, combinational effect with GM, S-3769 strain (S-3769 strain): B (25 μM<EC99≤100 μM)

N[C@@H](C(=O)N1CCN(Cc2cccc3cccnc23)CC1)C1CCN(CCc2cc(Cl)ccc2-c2ccccc2)CC1 [Example 533, Hydrobromide of (R)-2-amino-2-(1-(2-(4-chloro-[1,1-biphenyl]-2-yl)ethyl)piperidin-4-yl)-1-(4-(quinolin-8-ylmethyl)piperazin-1-yl)ethan-1-one]
EC99, combinational effect with AZT, mexB (PA) (mexB (PA) strain): B (25 μM<EC99≤100 μM) | EC99, combinational effect with LVFX, mexB (PA) (mexB (PA) strain): A (12.5 μM<EC99≤25 μM) | EC99, combinational effect with TC, mexB (PA) (mexB (PA) strain): A (12.5 μM<EC99≤25 μM) | EC99, combinational effect with AMK, S-3769 strain (S-3769 strain): A (12.5 μM<EC99≤25 μM) | EC99, combinational effect with GM, S-3769 strain (S-3769 strain): A (12.5 μM<EC99≤25 μM)

CCSc1ncccc1CN1CCN(C(=O)[C@H](N)C2CCN(CCc3cc(Cl)ccc3-c3ccccc3)CC2)CC1 [Example 535, Hydrobromide of (R)-2-amino-2-(1-(2-(4-chloro-[1,1-biphenyl]-2-yl)ethyl)piperidin-4-yl)-1-(4-((2-(ethylthio)pyridin-3-yl)methyl)piperazin-1-yl)ethan-1-one]
EC99, combinational effect with AZT, mexB (PA) (mexB (PA) strain): B (25 μM<EC99≤100 μM) | EC99, combinational effect with LVFX, mexB (PA) (mexB (PA) strain): A (12.5 μM<EC99≤25 μM) | EC99, combinational effect with TC, mexB (PA) (mexB (PA) strain): B (25 μM<EC99≤100 μM) | EC99, combinational effect with AMK, S-3769 strain (S-3769 strain): B (25 μM<EC99≤100 μM) | EC99, combinational effect with GM, S-3769 strain (S-3769 strain): B (25 μM<EC99≤100 μM)

CSc1cccnc1CN1CCN(C(=O)[C@H](N)C2CCN(CCc3cc(Cl)ccc3-c3ccccc3)CC2)CC1 [Example 536, Hydrobromide of (R)-2-amino-2-(1-(2-(4-chloro-[1,1-biphenyl]-2-yl)ethyl)piperidin-4-yl)-1-(4-((3-(methylthio)pyridin-2-yl)methyl)piperazin-1-yl)ethan-1-one]
EC99, combinational effect with AZT, mexB (PA) (mexB (PA) strain): A (12.5 μM<EC99≤25 μM) | EC99, combinational effect with LVFX, mexB (PA) (mexB (PA) strain): A (12.5 μM<EC99≤25 μM) | EC99, combinational effect with TC, mexB (PA) (mexB (PA) strain): B (25 μM<EC99≤100 μM) | EC99, combinational effect with AMK, S-3769 strain (S-3769 strain): B (25 μM<EC99≤100 μM) | EC99, combinational effect with GM, S-3769 strain (S-3769 strain): B (25 μM<EC99≤100 μM)

COc1c(CN2CCN(C(=O)[C@H](N)C3CCN(CCc4cc(Cl)ccc4-c4ccccc4)CC3)CC2)cccc1B(O)O [Example 537, Hydrobromide of (R)-(3-((4-(2-amino-2-(1-(2-(4-chloro-[1,1-biphenyl]-2-yl)ethyl)piperidin-4-yl)acetyl)piperazin-1-yl)methyl)-2-methoxyphenyl)boronic acid]
EC99, combinational effect with AZT, mexB (PA) (mexB (PA) strain): C (100 μM<EC99) | EC99, combinational effect with LVFX, mexB (PA) (mexB (PA) strain): C (100 μM<EC99) | EC99, combinational effect with TC, mexB (PA) (mexB (PA) strain): B (25 μM<EC99≤100 μM) | EC99, combinational effect with AMK, S-3769 strain (S-3769 strain): B (25 μM<EC99≤100 μM) | EC99, combinational effect with GM, S-3769 strain (S-3769 strain): A (12.5 μM<EC99≤25 μM)

CSc1ccccc1CN1CCN(C(=O)[C@H](N)C2CCN(CCc3cscc3-c3ccccc3)CC2)CC1 [Example 539, Hydrobromide of (R)-2-amino-1-(4-(2-(methylthio)benzyl)piperazin-1-yl)-2-(1-(2-(4-phenylthiophen-3-yl)ethyl)piperidin-4-yl)ethan-1-one]
EC99, combinational effect with AZT, mexB (PA) (mexB (PA) strain): B (25 μM<EC99≤100 μM) | EC99, combinational effect with LVFX, mexB (PA) (mexB (PA) strain): B (25 μM<EC99≤100 μM) | EC99, combinational effect with TC, mexB (PA) (mexB (PA) strain): B (25 μM<EC99≤100 μM) | EC99, combinational effect with AMK, S-3769 strain (S-3769 strain): B (25 μM<EC99≤100 μM) | EC99, combinational effect with GM, S-3769 strain (S-3769 strain): B (25 μM<EC99≤100 μM)
